Source: patent US20260000656A1, “ANTIFUNGAL AGENTS WITH ENHANCED ACTIVITY IN ACIDIC PH” (Scynexis, Inc., priority 2017, published 2026)
Converted amounts (≈) assume the structure as drawn. Like-named read-outs stand apart in the source and are kept apart here.

How the values were obtained:
[1] = test system: C. albicans isolates; assay: Broth microdilution susceptibility (CLSI M27-A3) at different medium pH; type: cell-based, Candida albicans; details: Candida albicans, 24 h, pH 7, C. albicans MRL 34449, pH 7.0, 24 hours; read-out: MIC (100% inhibition)
Experimental: (§1) Ten strains each of C. glabrata and C. albicans vaginal isolates were tested. The strains were obtained from recent clinical trial patients with vulvovaginal candidiasis (VVC) prior to treatment. Candida strains were obtained from the Mycology Reference Library (MRL) at Case Western Reserve University School of Medicine, Ohio, United States.
(§2) Susceptibility testing was performed using a broth microdilution method, according to CLSI M27-A3 guidelines (CLSI. 2008. Reference Method for Broth Dilution Antifungal Susceptibility Testing of Yeasts; Approved Standard—Third Edition. Clinical and Laboratory Standards Institute, CLSI document M27-A3). Antifungals and concentrations tested were SCY-078 and micafungin (both at concentrations within the range of 0.015 to 8 μg/ml) and fluconazole (at concentrations within the range of 0.125 to 64 μg/ml). A 0.1-ml C. albicans and C. glabrata inoculum of 0.5-2.5×10^3 blastospores/ml in RPMI 1640 medium was added to each microdilution well. ATCC strains of Candida parapsilosis and Candida krusei QC isolates were also included concurrently to ensure quality control. Antifungal susceptibility testing was carried out for each isolate in RPMI 1640 at pH 7 (to mimic RPMI medium used in testing the susceptibility of yeast by the CLSI M-27A3 document), pH 5.7, and pH 4.5 (to mimic the pH of the vaginal cavity) by adjusting the pH of the media using NaOH or HCl. […] Agents Chemother., 43: 1383-1386 (1999).
(§3) […] SCY-078 powder was manufactured by Avista, Laboratories, NC. Micafungin and fluconazole were sourced from LGM Pharma.

[2] = test system: C. glabrata isolates; assay: as above; type: cell-based, Candida glabrata; details: for MIC50 / MIC90 / MIC: Nakaseomyces glabratus, 24 h; for MIC50: read-out: MIC50; for MIC90: read-out: MIC90
Experimental: as §1, §2, §3

[3] = pH 4.5, 50% inhibition, pH 4.5, 24 h, 10 vaginal isolates
[4] = pH 4.5, 100% inhibition, pH 4.5, 24 hours, 10 isolates
[5] = pH 5.72, 50% inhibition, pH 5.72, 24 h, 10 vaginal isolates
[6] = pH 5.72, 100% inhibition, pH 5.72, 24 hours, 10 isolates

CC(C)[C@@H](C)[C@@]1(C)CC[C@]2(C)[C@H]3CC[C@@H]4[C@@]5(COC[C@]4(C)[C@@H](OC[C@](C)(N)C(C)(C)C)[C@H](n4ncnc4-c4ccncc4)C5)C3=CC[C@@]2(C)[C@@H]1C(=O)O [SCY-078]
MIC [1]: 0.5 µg/mL (≈ 0.685 µM) | MIC range ([2]; 50% inhibition, pH 4.5, 24 h, 10 vaginal isolates): 0.031 to 0.063 µg/mL | MIC range ([2]; 50% inhibition, pH 5.72, 24 h, 10 vaginal isolates): 0.5 µg/mL (≈ 0.685 µM) | MIC range ([2]; 50% inhibition, pH 7.0, 24 h, 10 vaginal isolates): 0.5 to 1 µg/mL | MIC range ([2]; 100% inhibition, pH 4.5, 24 hours, 10 isolates): 0.063 to 0.125 µg/mL | MIC range ([2]; 100% inhibition, pH 5.72, 24 hours, 10 isolates): 1 µg/mL (≈ 1.37 µM) | MIC range ([2]; 100% inhibition, pH 7.0, 24 hours, 10 isolates): 1 to 2 µg/mL | reduction in MIC50 at pH 4.5 compared to the MIC50 at pH 7.0 ([2]; C. glabrata isolates): 16 fold | MIC50 [2, 3]: 0.063 µg/mL (≈ 0.0863 µM) | MIC90 [2, 3]: 0.063 µg/mL (≈ 0.0863 µM) | MIC50 [2, 4]: 0.125 µg/mL (≈ 0.171 µM) | MIC90 [2, 4]: 0.125 µg/mL (≈ 0.171 µM) | MIC ([2]; pH 4.5, C. glabrata MRL 32075, pH 4.5, 24 hours, read-out: MIC (50% inhibition)): 0.063 µg/mL (≈ 0.0863 µM) | MIC ([2]; pH 4.5, C. glabrata MRL 32075, pH 4.5, 24 hours, read-out: MIC (100% inhibition)): 0.125 µg/mL (≈ 0.171 µM) | MIC ([2]; pH 4.5, C. glabrata MRL 32232, pH 4.5, 24 hours, read-out: MIC (50% inhibition)): 0.063 µg/mL (≈ 0.0863 µM) | MIC ([2]; pH 4.5, C. glabrata MRL 32232, pH 4.5, 24 hours, read-out: MIC (100% inhibition)): 0.125 µg/mL (≈ 0.171 µM) | MIC ([2]; pH 4.5, C. glabrata MRL 32626, pH 4.5, 24 hours, read-out: MIC (50% inhibition)): 0.063 µg/mL (≈ 0.0863 µM) | MIC ([2]; pH 4.5, C. glabrata MRL 32626, pH 4.5, 24 hours, read-out: MIC (100% inhibition)): 0.125 µg/mL (≈ 0.171 µM) | MIC ([2]; pH 4.5, C. glabrata MRL 32993, pH 4.5, 24 hours, read-out: MIC (50% inhibition)): 0.031 µg/mL (≈ 0.0425 µM) | MIC ([2]; pH 4.5, C. glabrata MRL 32993, pH 4.5, 24 hours, read-out: MIC (100% inhibition)): 0.063 µg/mL (≈ 0.0863 µM) | MIC ([2]; pH 4.5, C. glabrata MRL 33204, pH 4.5, 24 hours, read-out: MIC (50% inhibition)): 0.031 µg/mL (≈ 0.0425 µM) | MIC ([2]; pH 4.5, C. glabrata MRL 33204, pH 4.5, 24 hours, read-out: MIC (100% inhibition)): 0.063 µg/mL (≈ 0.0863 µM) | MIC ([2]; pH 4.5, C. glabrata MRL 33960, pH 4.5, 24 hours, read-out: MIC (50% inhibition)): 0.031 µg/mL (≈ 0.0425 µM) | MIC ([2]; pH 4.5, C. glabrata MRL 33960, pH 4.5, 24 hours, read-out: MIC (100% inhibition)): 0.063 µg/mL (≈ 0.0863 µM) | MIC ([2]; pH 4.5, C. glabrata MRL 33961, pH 4.5, 24 hours, read-out: MIC (50% inhibition)): 0.063 µg/mL (≈ 0.0863 µM) | MIC ([2]; pH 4.5, C. glabrata MRL 33961, pH 4.5, 24 hours, read-out: MIC (100% inhibition)): 0.063 µg/mL (≈ 0.0863 µM) | MIC ([2]; pH 4.5, C. glabrata MRL 34339, pH 4.5, 24 hours, read-out: MIC (50% inhibition)): 0.063 µg/mL (≈ 0.0863 µM) | MIC ([2]; pH 4.5, C. glabrata MRL 34339, pH 4.5, 24 hours, read-out: MIC (100% inhibition)): 0.125 µg/mL (≈ 0.171 µM) | MIC ([2]; pH 4.5, C. glabrata MRL 34407, pH 4.5, 24 hours, read-out: MIC (50% inhibition)): 0.063 µg/mL (≈ 0.0863 µM) | MIC ([2]; pH 4.5, C. glabrata MRL 34407, pH 4.5, 24 hours, read-out: MIC (100% inhibition)): 0.125 µg/mL (≈ 0.171 µM) | MIC ([2]; pH 4.5, C. glabrata MRL 34576, pH 4.5, 24 hours, read-out: MIC (50% inhibition)): 0.063 µg/mL (≈ 0.0863 µM) | MIC ([2]; pH 4.5, C. glabrata MRL 34576, pH 4.5, 24 hours, read-out: MIC (100% inhibition)): 0.125 µg/mL (≈ 0.171 µM) | MIC50 [2, 5]: 0.5 µg/mL (≈ 0.685 µM) | MIC90 [2, 5]: 0.5 µg/mL (≈ 0.685 µM) | MIC50 [2, 6]: 1 µg/mL (≈ 1.37 µM) | MIC90 [2, 6]: 1 µg/mL (≈ 1.37 µM) | MIC ([2]; pH 5.72, C. glabrata MRL 32075, pH 5.72, 24 hours, read-out: MIC (50% inhibition)): 0.5 µg/mL (≈ 0.685 µM) | MIC ([2]; pH 5.72, C. glabrata MRL 32075, pH 5.72, 24 hours, read-out: MIC (100% inhibition)): 1 µg/mL (≈ 1.37 µM) | MIC ([2]; pH 5.72, C. glabrata MRL 32232, pH 5.72, 24 hours, read-out: MIC (50% inhibition)): 0.5 µg/mL (≈ 0.685 µM) | MIC ([2]; pH 5.72, C. glabrata MRL 32232, pH 5.72, 24 hours, read-out: MIC (100% inhibition)): 1 µg/mL (≈ 1.37 µM)
